{"source": "patent US8877748B2", "about": "“Heterocyclic fused anthraquinone derivatives, manufacturing method and pharmaceutical composition using thereof” (National Defense Medical Center, priority 2012, dated 2014)", "key": {"[1]": {"system": "HCT-116", "experiment": "NCI one-dose screening, colon cancer HCT-116", "format": "cell-based, human", "conditions": "HCT-116, 10 μM"}, "[2]": {"system": "OVCAR-4", "experiment": "NCI one-dose screening, ovarian cancer OVCAR-4", "format": "cell-based, human", "conditions": "OVCAR-4, 10 μM"}, "[3]": {"system": "SNB-19", "experiment": "NCI one-dose screening, CNS cancer SNB-19", "format": "cell-based, human", "conditions": "SNB-19, 10 μM"}, "[4]": {"system": "RXF, 393", "experiment": "NCI one-dose screening, renal cancer RXF, 393", "format": "cell-based, human", "conditions": "RXF 393, 10 μM"}, "[5]": {"system": "SK-MEL-28", "experiment": "NCI one-dose screening, melanoma SK-MEL-28", "format": "cell-based, human", "conditions": "SK-MEL-28, 10 μM"}, "[6]": {"system": "MDA-MB-231/ATCC", "experiment": "NCI one-dose screening, breast cancer MDA-MB-231/ATCC", "format": "cell-based, human", "conditions": "MDA-MB-231/ATCC"}, "[7]": {"system": "NCI-H23", "experiment": "NCI one-dose screening, non-small cell lung cancer NCI-H23", "format": "cell-based, human", "conditions": "NCI-H23, 10 μM"}, "[8]": {"system": "SF-539", "experiment": "NCI one-dose screening, CNS cancer SF-539", "format": "cell-based, human", "conditions": "SF-539, 10 μM"}, "[9]": {"system": "MOLT-4", "experiment": "NCI one-dose screening, leukemia MOLT-4", "format": "cell-based, human", "conditions": "MOLT-4, 10 μM"}, "[10]": {"system": "ACHN", "experiment": "NCI one-dose screening, renal cancer ACHN", "format": "cell-based, human", "conditions": "ACHN"}, "[11]": {"system": "COLO 205", "experiment": "NCI one-dose screening, colon cancer COLO 205", "format": "cell-based, human", "conditions": "COLO 205, 10 μM"}, "[12]": {"system": "PC-3 prostate cancer cell line", "experiment": "SRB assay cell viability, PC-3 prostate cancer cell line", "format": "cell-based, human", "conditions": "PC-3 prostate cancer cell line, Table II prints no unit, μM printed, read-out: SRB assay: 50% inhibition of cancer cell proliferation of sample concentration (IC50) of PC-3 prostate cancer cell line"}, "[13]": {"system": "SNB-75", "experiment": "NCI one-dose screening, CNS cancer SNB-75", "format": "cell-based, human", "conditions": "SNB-75, 10 μM"}, "[14]": {"system": "PC-3", "experiment": "NCI one-dose screening, prostate cancer PC-3", "format": "cell-based, human", "conditions": "PC-3, 10 μM"}, "[15]": {"system": "HOP-92", "experiment": "NCI one-dose screening, non-small cell lung cancer HOP-92", "format": "cell-based, human", "conditions": "HOP-92, 10 μM"}}, "note": "Read-outs that look alike come from different tables or passages of the source."}
{"molecule": "O=C1c2ccccc2C(=O)c2c1cc(N1CCCC1)c1nsnc21", "note": "[C7, 4-(pyrrolidine-1-yl)anthra-[2,1-c][1,2,5] thiadiazol-6,11-dione]", "values": [{"measurement": "Growth Percent (10 μM)", "setting": "[1]", "value": 78.67, "unit": "%"}, {"measurement": "Growth Percent (10 μM)", "setting": "[2]", "value": 77.50, "unit": "%"}, {"measurement": "Growth Percent (10 μM)", "setting": "[3]", "value": 90.45, "unit": "%"}, {"measurement": "Growth Percent (10 μM)", "setting": "[4]", "value": 97.02, "unit": "%"}, {"measurement": "Growth Percent (10 μM)", "setting": "[5]", "value": 99.46, "unit": "%"}, {"measurement": "Growth Percent (10 μM)", "setting": "[6]", "value": 95.23, "unit": "%"}, {"measurement": "Growth Percent (10 μM)", "setting": "[7]", "value": 59.74, "unit": "%"}, {"measurement": "Growth Percent (10 μM)", "setting": "[8]", "value": 97.27, "unit": "%"}, {"measurement": "Growth Percent (10 μM)", "setting": "[9]", "value": 92.84, "unit": "%"}, {"measurement": "Growth Percent (10 μM)", "setting": "[10]", "value": 82.97, "unit": "%"}, {"measurement": "Growth Percent (10 μM)", "setting": "[11]", "value": 82.13, "unit": "%"}, {"measurement": "IC50", "setting": "[12]; Homo sapiens", "value": "> 15", "unit": "µM"}, {"measurement": "Growth Percent (10 μM)", "setting": "[13]", "value": 94.52, "unit": "%"}, {"measurement": "Growth Percent (10 μM)", "setting": "[14]", "value": 71.01, "unit": "%"}]}
{"molecule": "CN(C)CCNc1cc2c(c3nsnc13)C(=O)c1ccccc1C2=O", "note": "[C8]", "values": [{"measurement": "Growth Percent (10 μM)", "setting": "[1]", "value": "−2.07", "unit": "%"}, {"measurement": "Growth Percent (10 μM)", "setting": "[2]", "value": "−71.27", "unit": "%"}, {"measurement": "Growth Percent (10 μM)", "setting": "[3]", "value": "−77.31", "unit": "%"}, {"measurement": "Growth Percent (10 μM)", "setting": "[4]", "value": "−59.58", "unit": "%"}, {"measurement": "Growth Percent (10 μM)", "setting": "[15]", "value": "−25.30", "unit": "%"}, {"measurement": "Growth Percent (10 μM)", "setting": "[5]", "value": "−50.60", "unit": "%"}, {"measurement": "Growth Percent (10 μM)", "setting": "[6]", "value": "−2.96", "unit": "%"}, {"measurement": "Growth Percent (10 μM)", "setting": "[7]", "value": "−43.43", "unit": "%"}, {"measurement": "Growth Percent (10 μM)", "setting": "[8]", "value": "−82.05", "unit": "%"}, {"measurement": "Growth Percent (10 μM)", "setting": "[9]", "value": "−41.28", "unit": "%"}, {"measurement": "Growth Percent (10 μM)", "setting": "[10]", "value": "−22.86", "unit": "%"}, {"measurement": "Growth Percent (10 μM)", "setting": "[11]", "value": "−99.38", "unit": "%"}, {"measurement": "IC50", "setting": "[12]", "value": 0.4, "unit": "µM"}, {"measurement": "Growth Percent (10 μM)", "setting": "[13]", "value": "−73.34", "unit": "%"}, {"measurement": "Growth Percent (10 μM)", "setting": "[14]", "value": "−18.35", "unit": "%"}]}
{"molecule": "CC(C)Sc1cc2c(c3nsnc13)C(=O)c1ccccc1C2=O", "note": "[C18, 4-(isopropylthio)anthra[2,1-c][1,2,5] thiadiazol-6,11-dione]", "values": [{"measurement": "Growth Percent (10 μM)", "setting": "[1]", "value": "−36.70", "unit": "%"}, {"measurement": "Growth Percent (10 μM)", "setting": "[2]", "value": "−100.00", "unit": "%"}, {"measurement": "Growth Percent (10 μM)", "setting": "[3]", "value": 21.85, "unit": "%"}, {"measurement": "Growth Percent (10 μM)", "setting": "[4]", "value": 13.64, "unit": "%"}, {"measurement": "Growth Percent (10 μM)", "setting": "[5]", "value": "−8.32", "unit": "%"}, {"measurement": "Growth Percent (10 μM)", "setting": "[6]", "value": "−35.94", "unit": "%"}, {"measurement": "Growth Percent (10 μM)", "setting": "[7]", "value": "−42.19", "unit": "%"}, {"measurement": "melting point", "value": "193 to 194", "unit": "°C"}, {"measurement": "Growth Percent (10 μM)", "setting": "[8]", "value": "−47.01", "unit": "%"}, {"measurement": "Growth Percent (10 μM)", "setting": "[9]", "value": "−54.56", "unit": "%"}, {"measurement": "Growth Percent (10 μM)", "setting": "[10]", "value": 0.80, "unit": "%"}, {"measurement": "Growth Percent (10 μM)", "setting": "[11]", "value": 102.47, "unit": "%"}, {"measurement": "IC50", "setting": "[12]; Homo sapiens", "value": 1.15, "unit": "µM"}, {"measurement": "Growth Percent (10 μM)", "setting": "[13]", "value": 9.12, "unit": "%"}, {"measurement": "Growth Percent (10 μM)", "setting": "[14]", "value": "−13.43", "unit": "%"}]}
{"molecule": "Cc1ccc(Nc2cc3c(c4nsnc24)C(=O)c2ccccc2C3=O)cc1", "note": "[C64, 4-(p-tolylamino)anthra[2,1-c][1,2,5] thiadiazol-6,11-dione]", "values": [{"measurement": "Growth Percent (10 μM)", "setting": "[1]", "value": 31.32, "unit": "%"}, {"measurement": "Growth Percent (10 μM)", "setting": "[2]", "value": 31.44, "unit": "%"}, {"measurement": "Growth Percent (10 μM)", "setting": "[3]", "value": 82.28, "unit": "%"}, {"measurement": "Growth Percent (10 μM)", "setting": "[4]", "value": 71.05, "unit": "%"}, {"measurement": "Growth Percent (10 μM)", "setting": "[5]", "value": 74.97, "unit": "%"}, {"measurement": "Growth Percent (10 μM)", "setting": "[6]", "value": 73.83, "unit": "%"}, {"measurement": "Growth Percent (10 μM)", "setting": "[7]", "value": 45.87, "unit": "%"}, {"measurement": "Growth Percent (10 μM)", "setting": "[8]", "value": 70.48, "unit": "%"}, {"measurement": "Growth Percent (10 μM)", "setting": "[9]", "value": 12.86, "unit": "%"}, {"measurement": "Growth Percent (10 μM)", "setting": "[10]", "value": 57.60, "unit": "%"}, {"measurement": "Growth Percent (10 μM)", "setting": "[11]", "value": 100.68, "unit": "%"}, {"measurement": "IC50", "setting": "[12]; Homo sapiens", "value": 0.84, "unit": "µM"}, {"measurement": "Growth Percent (10 μM)", "setting": "[13]", "value": 80.91, "unit": "%"}, {"measurement": "Growth Percent (10 μM)", "setting": "[14]", "value": 45.73, "unit": "%"}]}
